Reference: article PMC10461462, “A critical inter‐subunit interaction for the transmission of the allosteric signal in the Agrobacterium tumefaciens ADP‐glucose pyrophosphorylase” (Protein Science : A Publication of the Protein Society, 2023)
Like-named read-outs stand apart in the source and are kept apart here.

Tests used:
[1] = target: Agrobacterium tumefaciens ADP-glucose pyrophosphorylase mutant D141A (Agrobacterium tumefaciens) (UniProt P39669); assay: SEC
[2] = target: Agrobacterium tumefaciens ADP-glucose pyrophosphorylase double mutant R11D/D141R (Agrobacterium tumefaciens) (UniProt P39669); assay: SEC
[3] = target: Agrobacterium tumefaciens ADP-glucose pyrophosphorylase mutant D141E (Agrobacterium tumefaciens) (UniProt P39669); assay: SEC
[4] = target: T1, D141N (Agrobacterium tumefaciens, UniProt P39669, D141N); assay: Effector saturation of ADP-Glc synthesis (Malachite Green) at pH 7.5 with 1.5 mM Glc1P and 4 mM ATP, effector inhibiting instead of activating; modified Hill fit.; assay type: biochemical; conditions: n = 2; read-out: A0.5 (mM), footnote: I0.5
T1 construct: gene glgC; His-tagged, from pBLH1/pBHL1 derivative, expressed in E. coli BL21(DE3); homotetramer
Description: (§1) This condition was considered “saturating concentrations” of substrate. To analyze the effect of the activators in “sub‐saturating concentrations” of substrate, the concentration of ATP was 0.2 mM.
(§2) The assays were performed as described in Materials and Methods in the presence of 4 mM ATP.
(§3) (1 picture or pasted object on this page, not shown here)

[5] = target: T2, R11D (Agrobacterium tumefaciens, UniProt P39669, R11D); assay: Thermal shift assay (SYPRO Orange) with varied ligand concentration in 50 mM HEPES pH 8.0, 0.02 mg/mL protein, 25-95 C; Tm versus log ligand concentration fitted to obtain Kd.; assay type: binding; conditions: n = 3
T2 construct: gene glgC; His-tagged, from pBLH1/pBHL1 derivative, expressed in E. coli BL21(DE3); homotetramer
Description: (§4) We used thermal shift assays to find whether the effect of the mutation was on the ability of Fru6P/Pyr either to bind or activate the enzyme. Activators of ADP‐Glc PPase bind to the enzyme and stabilize it from thermal denaturation (Bhayani & Ballicora, [2022]).
(§5) Thermal shift assays were performed as described (Hill et al., [2019]) using the QuantStudio™ 3 Real‐Time PCR System (Thermo Fisher Scientific) and QuantStudio™ Design and Analysis Software v1.5.1. The final volume for the assay was 20 μL and contained 50 mM HEPES (pH 8.0), SYPRO Orange Dye (Sigma‐Aldrich) (4×) and 0.02 mg/mL purified protein, in the absence or presence of 5 mM Fru6P, and 5 mM Pyr. A control with no protein was also performed for all the samples. A continuous temperature increases from 25.0 to 95.0°C was scanned at a ramp increment of 0.1°C per second. Scans were run in triplicates and averaged. The unfolding temperatures (T m ) of the proteins were measured using the minimum of the third derivative of the scanned fluorescence vs. temperature (d^3F/dT^3) (Bhayani & Ballicora, [2022]).
(§6) Thermal Shift assays were used to study the relationship between the melting temperature ( Tm ) of a protein and the logarithm of the ligand concentration using the following equation (Bhayani & Ballicora, [2022]). y=Tm0+Alog101+10^x/Kd.
(§7) In this equation, y is Tm , and x is the logarithm of the ligand concentration. […] The data was fitted to an equation using Origin™ 2017 and the Levenberg–Marquardt algorithm, to find the optimum parameters Tm0 , A , and Kd (Bhayani & Ballicora, [2022]). To ensure robustness and reliability, all thermal shift assays were conducted in triplicate.

[6] = target: T3, WT (Agrobacterium tumefaciens, UniProt P39669); assay: as above; assay type: binding; conditions: n = 3
T3 construct: gene glgC; His-tagged, from pBLH1/pBHL1 (pET28c derivative), expressed in E. coli BL21(DE3); homotetramer
T3 sequence (P39669 1-420): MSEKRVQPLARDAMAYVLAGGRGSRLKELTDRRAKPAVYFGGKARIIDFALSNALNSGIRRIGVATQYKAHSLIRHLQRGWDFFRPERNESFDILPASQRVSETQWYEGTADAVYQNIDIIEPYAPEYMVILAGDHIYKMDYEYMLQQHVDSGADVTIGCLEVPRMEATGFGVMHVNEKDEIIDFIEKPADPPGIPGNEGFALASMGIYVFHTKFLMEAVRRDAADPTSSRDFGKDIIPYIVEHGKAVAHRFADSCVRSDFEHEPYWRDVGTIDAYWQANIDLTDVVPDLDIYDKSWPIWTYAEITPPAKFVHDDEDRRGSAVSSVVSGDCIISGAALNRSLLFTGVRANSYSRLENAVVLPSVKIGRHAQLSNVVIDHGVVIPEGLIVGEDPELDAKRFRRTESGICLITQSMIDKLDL
Description: as §4, §5, §6, §7

[7] = target: T4, D141E (Agrobacterium tumefaciens, UniProt P39669, D141E); assay: Activator saturation of ADP-Glc synthesis (PPi converted to phosphate, Malachite Green) in 50 mM HEPES pH 7.5, 7 mM MgCl2, 1.5 mM Glc1P, 1.5 mM ATP; modified Hill fit.; assay type: biochemical; conditions: n = 2
T4 construct: gene glgC; His-tagged, from pBLH1/pBHL1 derivative, expressed in E. coli BL21(DE3); homotetramer
Description: as §1
(§8) Table S1 . Kinetic parameters for the activators of the A. tumefaciens ADP -Glc PPase wild type, and mutants.
(§9) a Assays were performed as described in Materials and Methods under “activator saturation assay”.
(§10) b Activation fold is calculated by dividing the maximum velocity (Vm) by the velocity in the absence of activator (V0).

[8] = target: T3, WT; assay: as above; assay type: biochemical; conditions: n = 2; read-out: A0.5
Description: as §1, §8, §9, §10

[9] = target: T5, R11K (Agrobacterium tumefaciens, UniProt P39669, R11K); assay: as above; assay type: biochemical; conditions: n = 2
T5 construct: gene glgC; His-tagged, from pBLH1/pBHL1 derivative, expressed in E. coli BL21(DE3); homotetramer
Description: as §1, §8, §9, §10

[10] = target: T6, D141A (Agrobacterium tumefaciens, UniProt P39669, D141A); assay: as above; assay type: biochemical; conditions: n = 2; read-out: A0.5
T6 construct: gene glgC; His-tagged, from pBLH1/pBHL1 derivative, expressed in E. coli BL21(DE3); homotetramer
Description: as §1, §8, §9, §10

[11] = target: T6, D141A; assay: Activator saturation of ADP-Glc synthesis (Malachite Green) at pH 7.5 with 1.5 mM Glc1P and 4 mM ATP; modified Hill fit.; assay type: biochemical; conditions: n = 2; read-out: A0.5
Description: as §1, §2, §3

[12] = target: Agrobacterium tumefaciens ADP-glucose pyrophosphorylase mutant R11K (Agrobacterium tumefaciens) (UniProt P39669); assay: SEC
[13] = tested on: T7, R11A; assay: Activator saturation of ADP-Glc synthesis (PPi converted to phosphate, Malachite Green) in 50 mM HEPES pH 7.5, 7 mM MgCl2, 1.5 mM Glc1P, 1.5 mM ATP; modified Hill fit.; assay type: biochemical; design: method as in values quoted from other papers; conditions: n = 2; read-out: A0.5; cited from earlier work
T7 construct: values from literature (Gomez-Casati et al., 2001)
Description: as §1, §8, §9, §10

[14] = target: T1, D141N; assay: as above; assay type: biochemical; conditions: n = 2; read-out: A0.5
Description: as §1, §8, §9, §10

[15] = target: T8, R11D/D141R (Agrobacterium tumefaciens, UniProt P39669, D141R/R11D); assay: as above; assay type: biochemical; conditions: n = 2; read-out: A0.5
T8 construct: gene glgC; His-tagged, from pBLH1/pBHL1 derivative, expressed in E. coli BL21(DE3); homotetramer
Description: as §1, §8, §9, §10

[16] = target: Agrobacterium tumefaciens ADP-glucose pyrophosphorylase mutant R11D (Agrobacterium tumefaciens) (UniProt P39669); assay: SEC
[17] = target: Agrobacterium tumefaciens ADP-glucose pyrophosphorylase mutant D141R (Agrobacterium tumefaciens) (UniProt P39669); assay: SEC
[18] = target: Agrobacterium tumefaciens ADP-glucose pyrophosphorylase mutant D141N (Agrobacterium tumefaciens) (UniProt P39669); assay: SEC
[19] = target: the molecule itself; assay: SEC

Agrobacterium tumefaciens ADP-glucose pyrophosphorylase mutant D141A (from UniProt P39669) (enzyme)
stoichiometry N [1]: 4

Agrobacterium tumefaciens ADP-glucose pyrophosphorylase double mutant R11D/D141R (from UniProt P39669) (enzyme)
stoichiometry N [2]: 4

Agrobacterium tumefaciens ADP-glucose pyrophosphorylase mutant D141E (from UniProt P39669) (enzyme)
stoichiometry N [3]: 4

CC(=O)C(=O)O [Pyr, pyruvate]
IC50 [4]: 0.075 mM
Kd [5]: 54 µM
Kd [6]: 233 µM
EC50 [7]: 60 µM
EC50 [8]: 450 µM
EC50 [9]: 40 µM
EC50 [10]: 300 µM
EC50 [11]: 49 µM

Agrobacterium tumefaciens ADP-glucose pyrophosphorylase mutant R11K (from UniProt P39669) (enzyme)
stoichiometry N [12]: 4

O=P(O)(O)OC[C@H]1OC(O)(CO)[C@@H](O)[C@@H]1O (some centres unmarked) [Fru6P, fructose 6-phosphate]
EC50 [13]: 30 µM
Kd [5]: 1820 µM
Kd [6]: 1510 µM
EC50 ([7]; read-out: A0.5): 30 µM
EC50 [14]: 2970 µM
EC50 [8]: 340 µM
EC50 [15]: 1320 µM
EC50 [9]: 50 µM
EC50 [10]: 840 µM
EC50 [11]: 500 µM

Agrobacterium tumefaciens ADP-glucose pyrophosphorylase mutant R11D (from UniProt P39669) (enzyme)
stoichiometry N [16]: 4

Agrobacterium tumefaciens ADP-glucose pyrophosphorylase mutant D141R (from UniProt P39669) (enzyme)
stoichiometry N [17]: 2

Agrobacterium tumefaciens ADP-glucose pyrophosphorylase mutant D141N (from UniProt P39669) (enzyme)
stoichiometry N [18]: 4

B1: Agrobacterium tumefaciens ADP-glucose pyrophosphorylase wild type (enzyme)
chain: T3 sequence (P39669 1-420)
notes: ADP-glucose pyrophosphorylase (EC 2.7.7.27) of Agrobacterium tumefaciens, ~50 kDa subunit, encoded by plasmid pBHL1 (pET28c derivative) of Hill et al., 2019; also called ADP-Glc PPase; WT; source: E. coli BL21 (DE3), purified (His-Trap FF Ni2+ column, Superdex 200 gel filtration)
stoichiometry N [19]: 4
